Results published in BigSolDB 2.1.

Cc1c(OCC(F)(F)F)ccnc1CS(=O)c1nc2ccccc2[nH]1 (stereo unspecified)
solubility (mole fraction)
Details	in 2-butanone	in MIBK	in acetone	in ethyl acetate	in isobutyl acetate	in isopropanol	in n-butanol	in n-butyl acetate	in n-pentanol	in n-propanol
283.15 K	0.00289	0.0013	0.00249	0.00137	0.000784	0.00082	0.0012	0.000987	0.00138	0.00166
288.15 K	0.00349	0.00154	–	0.00164	0.000965	0.000922	0.00166	0.0012	0.00184	0.00206
290.15 K	–	–	0.0031	–	–	–	–	–	–	–
293.15 K	0.00412	0.00183	–	0.002	0.00117	0.00124	0.00215	0.00144	0.00227	0.0026
297.15 K	–	–	0.00395	–	–	–	–	–	–	–
298.15 K	0.00489	0.00216	–	0.00245	0.00136	0.00161	0.0027	0.00172	0.00281	0.00314
303.15 K	0.00578	0.00255	–	0.00291	0.00161	0.00202	0.00336	0.00195	0.00344	0.00388
304.15 K	–	–	0.00494	–	–	–	–	–	–	–
308.15 K	0.00697	0.00307	–	0.00343	0.00193	0.00261	0.00419	0.00232	0.00412	0.00468
311.15 K	–	–	0.00626	–	–	–	–	–	–	–
313.15 K	0.0083	0.00362	–	0.00416	0.00228	0.00333	0.00515	0.00271	0.00518	0.00588
318.15 K	–	–	0.00801	0.00469	–	0.00422	–	–	–	–
